Some test systems named below: A498; MDA-MB-435; EKVX; SK-MEL-28; M14; Malme-3M; ACHN; TK-10; A549; OVCAR-3; HOP-92; IGROV-1; SN12C; SK-OV-3; UACC-257; SK-MEL-5; NCI-H522; SNB-19; SNB-75; CCRF-CEM.
Holding throughout (experiment): DTP human tumour cell line panel, 48 h

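Results reflect a 48-hour exposure of cells in 96-well plates to compound at five concentrations. Abbreviation: GI50, concentration required for 50% inhibition of growth.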 Activity calls are given as the source filed them. No stated cut-off is given here; in the data, active = GI50 up to about 1.1 µM and inactive = higher. Some results are limits rather than exact numbers.

On to `CN(C)CCNCCN`, for which the GI50 in the test on A498, with MDA-MB-435, with EKVX, in the test on SK-MEL-28, in the test on M14 and in the test with Malme-3M was > 100 µM (inactive) in each case. Further, the GI50 in the test on ACHN, in the test with TK-10, in the test on A549, with OVCAR-3, in the test on HOP-92 and in the test on IGROV-1 was > 100 µM (inactive) each time. Moreover, the GI50 in the test with SN12C, in the test on SK-OV-3, in the test with UACC-257, in the test on SK-MEL-5, in the test on NCI-H522 and in the test on SNB-19 was > 100 µM (inactive) throughout.

With `O=C1Nc2ccccc2/C1=N/Nc1ccccc1Cl`, the GI50 (as a rule, the concentration that inhibits growth by half) with A498 was 18.7 µM (inactive); in the test with MDA-MB-435 it was > 100 µM (inactive); in the test on EKVX it was 14.5 µM (inactive); in the test with SK-MEL-28, > 100 µM (inactive); in the test with SNB-75, 22.1 µM (inactive); with CCRF-CEM it was 45.9 µM (inactive). Further, the GI50 is 96.2 µM (inactive) in the test on M14; 77.3 µM (inactive) in the test on Malme-3M; 3.58 µM (inactive) in the test on ACHN; 5.41 µM (inactive) in the test on TK-10; 45.7 µM (inactive) in the test with A549; 26.6 µM (inactive) in the test on OVCAR-3. The GI50 in the test on IGROV-1 is 1.78 µM (inactive); with SN12C, 21.7 µM (inactive); with SK-OV-3 it was 16.1 µM (inactive); in the test on UACC-257, 35.3 µM (inactive); in the test with SK-MEL-5, 68.5 µM (inactive); in the test with NCI-H522, 37.8 µM (inactive). In the test on SNB-19, the GI50 is 29.8 µM (inactive).

In the case of `O=C(/C=C1\Nc2ccc([N+](=O)[O-])cc2N=C1NC12CC3CC(CC(C3)C1)C2)c1ccccc1`, the GI50 with A498 was 3.85 µM (inactive); with MDA-MB-435 it was > 10 µM (inactive); with EKVX, > 10 µM (inactive); in the test with SK-MEL-28, > 10 µM (inactive); in the test on SNB-75, > 10 µM (inactive); in the test on M14, > 10 µM (inactive). In addition, the GI50 in the test on Malme-3M is > 10 µM (inactive); in the test on ACHN it was > 10 µM (inactive); with TK-10, 9.91 µM (inactive); with OVCAR-3, > 10 µM (inactive); with IGROV-1, > 10 µM (inactive); with SN12C, > 10 µM (inactive). Besides, the GI50 with SK-OV-3 was 3.77 µM (inactive); in the test on UACC-257, > 10 µM (inactive); in the test with SK-MEL-5, > 10 µM (inactive); in the test with NCI-H522, > 10 µM (inactive).

`CCOC(=O)c1cc2c3ccn(Cc4ccccc4)c3c3c(C)noc3c2[nH]1`: the GI50 in the test with A498 is > 100 µM (inactive); with MDA-MB-435, > 100 µM (inactive); in the test with EKVX it was > 100 µM (inactive); in the test with SK-MEL-28, > 100 µM (inactive); in the test with SNB-75, 74.6 µM (inactive); in the test on CCRF-CEM it was > 100 µM (inactive). Further, the GI50 in the test on M14, in the test with Malme-3M, in the test with ACHN, with TK-10, with A549 and in the test with OVCAR-3 was > 100 µM (inactive) each time. For the same compound, the GI50 in the test with IGROV-1, with SN12C, in the test with UACC-257, in the test with SK-MEL-5, in the test with NCI-H522 and with SNB-19 was > 100 µM (inactive) each time.

In the case of `COc1cccc2c1-c1c(OC)cccc1SS2`, the GI50 in the test with A498 is 8.75 µM (inactive); in the test with MDA-MB-435 it was 3.73 µM (inactive); with EKVX, 13.1 µM (inactive); in the test on SK-MEL-28 it was 16.8 µM (inactive); in the test on M14 it was 27 µM (inactive); in the test on Malme-3M, 18.1 µM (inactive). For the same compound, the GI50 in the test with ACHN is 41.8 µM (inactive); in the test on TK-10, 21.9 µM (inactive); in the test with A549, 14.4 µM (inactive); with OVCAR-3, 16.3 µM (inactive); with HOP-92, 19.9 µM (inactive); in the test with IGROV-1, 17.4 µM (inactive). The GI50 is 13.8 µM (inactive) in the test on SN12C; 11.6 µM (inactive) in the test with UACC-257; 13.6 µM (inactive) in the test on SK-MEL-5; 19.7 µM (inactive) with NCI-H522; 24.8 µM (inactive) with SNB-19.

In the case of `c1csc(-c2sc(-c3ccsc3)cc2Cc2ccsc2)c1`, the GI50 in the test on MDA-MB-435, in the test on EKVX, with SK-MEL-28, in the test with SNB-75, in the test with CCRF-CEM and with M14 was > 10 µM (inactive) in each case. The GI50 in the test with Malme-3M, with TK-10, in the test with A549, with HOP-92, in the test on IGROV-1 and in the test on SN12C was > 10 µM (inactive) each time. Further, the GI50 in the test with SK-OV-3, with UACC-257 and with SK-MEL-5 was > 10 µM (inactive) in each case.

Consider `O=CNCCCN1CCN(CCCNC=O)CC1`, for which the GI50 with A498, with MDA-MB-435, with EKVX, in the test on SK-MEL-28, in the test with CCRF-CEM and with M14 was > 100 µM (inactive) each time. For the same compound, the GI50 with ACHN, in the test with TK-10, in the test on A549, in the test on OVCAR-3, in the test on HOP-92 and in the test on IGROV-1 was > 100 µM (inactive) each time. The GI50 is > 100 µM (inactive) in the test on SN12C; > 100 µM (inactive) in the test with SK-OV-3; > 100 µM (inactive) in the test on UACC-257; > 100 µM (inactive) in the test on SK-MEL-5; 1.6 µM (inactive) with NCI-H522; > 100 µM (inactive) in the test on SNB-19.

For `O=C(NN=C1CCN(Cc2ccccc2)CC1)C(O)(c1ccccc1)c1ccccc1`, the GI50 in the test with MDA-MB-435, with EKVX, in the test on SK-MEL-28, in the test with SNB-75, in the test on CCRF-CEM and with M14 was > 100 µM (inactive) each time. For the same compound, the GI50 with Malme-3M, in the test with TK-10, with A549, in the test on HOP-92, in the test with IGROV-1 and in the test with SN12C was > 100 µM (inactive) in each case. The GI50 in the test with SK-OV-3, with UACC-257, with SK-MEL-5 and in the test with SNB-19 was > 100 µM (inactive) each time.

`CSC(=S)Nc1cc(C)ccn1`: the GI50 with MDA-MB-435 is > 100 µM (inactive); in the test on EKVX it was > 100 µM (inactive); with SK-MEL-28 it was > 100 µM (inactive); with SNB-75, 29 µM (inactive); in the test on CCRF-CEM it was > 100 µM (inactive); in the test on M14, > 100 µM (inactive). For the same compound, the GI50 in the test with Malme-3M was 61.4 µM (inactive); with ACHN, 70 µM (inactive); with TK-10, > 100 µM (inactive); with A549, > 100 µM (inactive); in the test on OVCAR-3 it was 40.6 µM (inactive); with HOP-92, 79.3 µM (inactive). Further, the GI50 was 20.8 µM (inactive) with IGROV-1; 57.7 µM (inactive) in the test with SN12C; > 100 µM (inactive) in the test on SK-OV-3; > 100 µM (inactive) in the test on UACC-257; 16.7 µM (inactive) in the test with SK-MEL-5; 40.7 µM (inactive) with NCI-H522. In addition, in the test on SNB-19, the GI50 was > 100 µM (inactive).

Regarding `NCCN1CCCCCc2ccccc21`, the GI50 in the test with A498, in the test on MDA-MB-435, with EKVX, in the test on SK-MEL-28, in the test on SNB-75 and in the test on CCRF-CEM was > 10 µM (inactive) throughout. The GI50 in the test with Malme-3M, in the test with ACHN, in the test with TK-10, in the test with A549, in the test with OVCAR-3 and in the test with IGROV-1 was > 10 µM (inactive) in each case. Besides, the GI50 in the test on SN12C, in the test on SK-OV-3, in the test with UACC-257, in the test on SK-MEL-5, in the test with NCI-H522 and in the test with SNB-19 was > 10 µM (inactive) throughout.

Regarding `CC(C)=CCC/C(C)=C/Cc1c2c(c3oc(-c4ccc(O)c(O)c4)c(O)c(=O)c3c1O)C=CC(C)(C)O2`, the GI50 was 6.32 µM (inactive) in the test on A498; 5.33 µM (inactive) with MDA-MB-435; 4.37 µM (inactive) with SK-MEL-28; 5.22 µM (inactive) with SNB-75; 1.79 µM (inactive) with CCRF-CEM; 2.8 µM (inactive) in the test with M14. In addition, the GI50 in the test on Malme-3M was 0.665 µM (active); with ACHN, 2.22 µM (inactive); in the test with TK-10, 5.24 µM (inactive); in the test on A549, 3.87 µM (inactive); in the test with OVCAR-3, 1.32 µM (inactive); in the test on IGROV-1 it was 2.11 µM (inactive). Besides, the GI50 in the test on SN12C was 5.98 µM (inactive); with SK-OV-3, 2.57 µM (inactive); in the test with UACC-257, 5.22 µM (inactive); with SK-MEL-5, 2.95 µM (inactive); in the test on NCI-H522, 0.916 µM (active); in the test with SNB-19 it was 5.85 µM (inactive).

(Values after ChEMBL document CHEMBL1201862, “PubChem BioAssay data set” (2004).)
